For 58 molecules, IC50 results are on record in patent publication US20240246980A1, “MODULATORS OF MAS-RELATED G-PROTEIN RECEPTOR D AND RELATED PRODUCTS AND METHODS” (Escient Pharmaceuticals, Inc., priority 2022, published 2024).

This assay deals with human MRGPRD (Homo sapiens, UniProt Q8TDS7). Put plainly: MRGPRD antagonist activity, IP-One HTRF assay in CHO cells stably expressing human MRGPRD (versus 100 μM β-Alanine agonist). The class given is cell-based. Put shortly:
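Cells (20,000/well, plated overnight) received antagonist and agonist in buffer with 5.7 mM Tris-HCl, 43 mM NaCl and 50 mM LiCl at pH 8. Incubation ran 1 h at 37 °C, then 1 h at room temperature, before IP-1 HTRF detection. IC50 was fitted from the HTRF ratio, and percent antagonism was taken relative to the maximum efficacy response, given as averages with SEM.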
(In general: In TR-FRET formats the signal depends on donor and acceptor labels being close together.)

Sequence of human MRGPRD (Q8TDS7 whole entry): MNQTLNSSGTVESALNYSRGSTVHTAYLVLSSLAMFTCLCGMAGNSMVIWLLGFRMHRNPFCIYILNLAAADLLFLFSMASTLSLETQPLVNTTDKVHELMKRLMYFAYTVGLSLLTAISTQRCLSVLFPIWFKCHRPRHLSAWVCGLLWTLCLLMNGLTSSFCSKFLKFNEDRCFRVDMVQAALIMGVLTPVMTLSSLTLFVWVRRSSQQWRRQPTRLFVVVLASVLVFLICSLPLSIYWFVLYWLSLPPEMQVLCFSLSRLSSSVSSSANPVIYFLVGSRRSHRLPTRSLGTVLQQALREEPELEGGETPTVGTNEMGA

Take `COc1cccc(-c2nc([C@@H]3CCCN(C(=O)Nc4cnc(N(C)C)nc4)C3)n3ccccc23)c1` [Compound 5-72]: the IC50 was less than 0.1 µM.
The same measure for `COc1cccc(-c2nc([C@@H]3CCCN(C(=O)Nc4cnc(C)nc4)C3)n3ccccc23)c1` [Compound 5-73]: less than 0.1 µM; for `COc1cccc(-c2nc([C@@H]3CCCN(C(=O)Nc4cccc(CO)c4)C3)n3ccccc23)c1` [Compound 6-1, (R)—N-(3-(hydroxymethyl)phenyl)-3-(1-(3-methoxyphenyl)imidazo[1,5-a]pyridin-3-yl)piperidine-1-carboxamide]: less than 0.1 µM; for `CNc1ccc(NC(=O)N2CCC[C@@H](c3nc(-c4cccc(OC)c4)c4ccccn34)C2)cc1` [Compound 7-1, (R)-3-(1-(3-methoxyphenyl)imidazo[1,5-a]pyridin-3-yl)-N-(4-(methylamino)phenyl)piperidine-1-carboxamide]: less than 0.1 µM.
The molecule `COc1cccc(-c2nc(-c3cccc(C(=O)Nc4cccc(N(C)C)c4)c3)n3ccccc23)c1` [Compound 8-1, N-(3-(dimethylamino)phenyl)-3-(1-(3-methoxyphenyl)imidazo[1,5-a]pyridin-3-yl)benzamide] displayed an IC50 of 0.1 to 0.5 µM.
The same measure for `COc1cccc(-c2nc(-c3cccc(C(=O)Nc4ccc(N(C)C)cc4)c3)n3ccccc23)c1` [Compound 8-2]: less than 0.1 µM.
As to `COc1cccc(-c2nn(C3CCCN(C(=O)Nc4ccc(N(C)C)cc4)C3)c3ncccc23)c1` (stereo not shown) [Compound 9-1, N-(4-(dimethylamino)phenyl)-3-(3-(3-methoxyphenyl)-1H-pyrazolo[3,4-b]pyridin-1-yl)piperidine-1-carboxamide], the IC50 is less than 0.1 µM.
The same measure for `COc1cccc(-c2nn(C3CCCN(C(=O)Nc4cccc(N(C)C)c4)C3)c3ncccc23)c1` (stereo not shown) [Compound 9-2]: less than 0.1 µM; for `CN(C)c1ccc(NC(=O)N2CCC[C@@H](c3nc(-c4ccccc4)c4ccccn34)C2)cc1` [Compound 10-2]: 0.5 to 1 µM.
To `CN(C)c1ccc(NC(=O)N2CCC[C@@H](c3nc(-c4ccccc4C(F)(F)F)c4ccccn34)C2)cc1` [Compound 10-3] belongs 0.5 to 1 µM; to `CCOc1cccc(-c2nc([C@@H]3CCCN(C(=O)Nc4ccc(N(C)C)cc4)C3)n3ccccc23)c1` [Compound 10-4], less than 0.1 µM; to `CN(C)c1ccc(NC(=O)N2CCC[C@@H](c3nc(-c4cccc(O)c4)c4ccccn34)C2)cc1` [Compound 10-5], 0.5 to 1 µM.
To `CN(C)c1ccc(NC(=O)N2CCC[C@@H](c3nc(-c4cccc(N(C)C)c4)c4ccccn34)C2)cc1` [Compound 10-6] belongs 0.1 to 0.5 µM; to `CC(=O)c1cccc(-c2nc([C@@H]3CCCN(C(=O)Nc4ccc(N(C)C)cc4)C3)n3ccccc23)c1` [Compound 10-7], less than 0.1 µM; to `CN(C)c1ccc(NC(=O)N2CCC[C@@H](c3nc(-c4ccccc4Cl)c4ccccn34)C2)cc1` [Compound 10-8], 0.5 to 1 µM.
In turn, `CCc1cccc(-c2nc([C@@H]3CCCN(C(=O)Nc4ccc(N(C)C)cc4)C3)n3ccccc23)c1` [Compound 10-9] displayed an IC50 of 0.5 to 1 µM.
To `CN(C)c1ccc(NC(=O)N2CCC[C@@H](c3nc(-c4cccc(-c5ccccc5)c4)c4ccccn34)C2)cc1` [Compound 10-10] belongs more than 3 µM; to `CN(C)c1ccc(NC(=O)N2CCC[C@@H](c3nc(-c4cccc(C(F)(F)F)c4)c4ccccn34)C2)cc1` [Compound 10-11], 0.5 to 1 µM; to `CN(C)c1ccc(NC(=O)N2CCC[C@@H](c3nc(-c4cccc(C#N)c4)c4ccccn34)C2)cc1` [Compound 10-12], 0.5 to 1 µM.
`CC(C)Oc1cccc(-c2nc([C@@H]3CCCN(C(=O)Nc4ccc(N(C)C)cc4)C3)n3ccccc23)c1` [Compound 10-13] gave an IC50 of 0.5 to 1 µM.
To `CN(C)c1ccc(NC(=O)N2CCC[C@@H](c3nc(-c4ccc(OC(F)(F)F)cc4)c4ccccn34)C2)cc1` [Compound 10-14] belongs 1 to 3 µM; to `CN(C)c1ccc(NC(=O)N2CCC[C@H](c3nc(-c4ccccc4)c4ccccn34)C2)cc1` [Compound 10-15], 1 to 3 µM; to `CN(C)c1ccc(NC(=O)N2CCC[C@@H](c3nc(-c4cccc(C(F)F)c4)c4ccccn34)C2)cc1` [Compound 10-16], 0.1 to 0.5 µM.
The same measure for `COc1cc(OC)cc(-c2nc([C@@H]3CCCN(C(=O)Nc4ccc(N(C)C)cc4)C3)n3ccccc23)c1` [Compound 10-17]: less than 0.1 µM; for `CC(O)c1cccc(-c2nc([C@@H]3CCCN(C(=O)Nc4ccc(N(C)C)cc4)C3)n3ccccc23)c1` (stereo partly shown) [Compound 10-18]: 0.1 to 0.5 µM.
The same measure for `CN(C)c1ccc(NC(=O)N2CCC[C@@H](c3nc(-c4ccc(Cl)cc4)c4ccccn34)C2)cc1` [Compound 10-19]: 0.5 to 1 µM.
Molecule `CN(C)c1ccc(NC(=O)N2CCC[C@@H](c3nc(-c4ccccc4-c4ccccc4)c4ccccn34)C2)cc1` [Compound 10-20] yielded an IC50 of more than 3 µM.
The same measure for `CCc1ccccc1-c1nc([C@@H]2CCCN(C(=O)Nc3ccc(N(C)C)cc3)C2)n2ccccc12` [Compound 10-21]: 0.1 to 0.5 µM.
As to `CN(C)c1ccc(NC(=O)N2CCC[C@@H](c3nc(-c4cccc(Cl)c4)c4ccccn34)C2)cc1` [Compound 10-22], the half-inhibitory concentration (IC50) lay in the range of 0.5 to 1 µM.
For the molecule `CN(C)c1ccc(NC(=O)N2CCC[C@@H](c3nc(-c4ccc(C#N)cc4)c4ccccn34)C2)cc1` [Compound 10-23], the IC50 was in the range of 0.5 to 1 µM.
To `CN(C)c1ccc(NC(=O)N2CCC[C@@H](c3nc(-c4cccc(OC(F)(F)F)c4)c4ccccn34)C2)cc1` [Compound 10-24] belongs 0.5 to 1 µM; to `COc1cccc(-c2nc([C@@H]3CCCN(C(=O)NCCc4ccnn4C)C3)n3ccccc23)c1` [Compound 10-25], 0.1 to 0.5 µM; to `CN(C)c1ccc(NC(=O)N2CCC[C@@H](c3nc(-c4ccc5c(c4)CCC5)c4ccccn34)C2)cc1` [Compound 10-26], 0.5 to 1 µM.
To `CN(C)c1ccc(NC(=O)N2CCC[C@@H](c3nc(-c4ccc5c(c4)OCO5)c4ccccn34)C2)cc1` [Compound 10-27] belongs 0.5 to 1 µM.
To `CN(C)c1ccc(NC(=O)N2CCC[C@H](c3nc(-c4cccc(F)c4)c4ccccn34)C2)cc1` [Compound 10-28] belongs 1 to 3 µM.
For `CCc1ccc(-c2nc([C@@H]3CCCN(C(=O)Nc4ccc(N(C)C)cc4)C3)n3ccccc23)cc1` [Compound 10-29], the IC50 lay within 0.5 to 1 µM.
In turn, `CN(C)c1ccc(NC(=O)N2CCC[C@@H](c3nc(-c4ccc(C(F)(F)F)cc4)c4ccccn34)C2)cc1` [Compound 10-30] came in with an IC50 of 1 to 3 µM.
To `COc1ccccc1-c1nc([C@H]2CCCN(C(=O)Nc3ccc(N(C)C)cc3)C2)n2ccccc12` [Compound 10-31] belongs more than 3 µM.
The same measure for `CN(C)c1ccc(NC(=O)N2CCC[C@@H](c3nc(-c4ccccc4C(F)F)c4ccccn34)C2)cc1` [Compound 10-32]: 1 to 3 µM; for `CN(C)c1ccc(NC(=O)N2CCC[C@@H](c3nc(-c4ccc(-c5ccccc5)cc4)c4ccccn34)C2)cc1` [Compound 10-33]: more than 3 µM.
The same measure for `CN(C)c1ccc(NC(=O)N2CCC[C@@H](c3nc(-c4ccc5ccccc5c4)c4ccccn34)C2)cc1` [Compound 10-34]: 1 to 3 µM; for `CN(C)c1ccc(NC(=O)N2CCC[C@@H](c3nc(-c4ccc(S(C)(=O)=O)cc4)c4ccccn34)C2)cc1` [Compound 10-35]: more than 3 µM; for `CC(=O)c1ccc(-c2nc([C@@H]3CCCN(C(=O)Nc4ccc(N(C)C)cc4)C3)n3ccccc23)cc1` [Compound 10-36]: 0.5 to 1 µM.
In turn, `COc1ccccc1-c1nc([C@@H]2CCCN(C(=O)Nc3ccc(N(C)C)cc3)C2)n2ccccc12` [Compound 10-37] returned an IC50 of 0.5 to 1 µM.
Take `COc1cccc(-c2nc([C@@H]3CCCN(C(=O)NCCN4CCOCC4)C3)n3ccccc23)c1` [Compound 10-38]: the IC50 lay in the range of 0.5 to 1 µM.
The same measure for `COC/C=C/c1nc([C@@H]2CCCN(C(=O)Nc3ccc(N(C)C)cc3)C2)n2ccccc12` [Compound 10-39]: more than 3 µM.
To `CNc1cccc(-c2nc([C@@H]3CCCN(C(=O)Nc4ccc(N(C)C)cc4)C3)n3ccccc23)c1` [Compound 10-40] belongs 0.5 to 1 µM; to `COCCCc1nc([C@@H]2CCCN(C(=O)Nc3ccc(N(C)C)cc3)C2)n2ccccc12` [Compound 10-41], 1 to 3 µM.
Turning to `CN(C)c1ccc(NC(=O)N2CCC[C@@H](c3nc(-c4cccc(F)c4)c4ccccn34)C2)cc1` [Compound 10-42], the IC50 fell in the range of 0.5 to 1 µM.
To `COc1ccc(-c2nc([C@@H]3CCCN(C(=O)Nc4ccc(N(C)C)cc4)C3)n3ccccc23)cc1` [Compound 10-43] belongs 0.5 to 1 µM; to `CN(C)c1ccc(NC(=O)N2CCC[C@@H](c3nc(C4=CCCCC4)c4ccccn34)C2)cc1` [Compound 10-44], 0.1 to 0.5 µM; to `CN(C)c1ccc(NC(=O)N2CCC[C@@H](c3nc(C4CCCCC4)c4ccccn34)C2)cc1` [Compound 10-45], 0.1 to 0.5 µM.
To `CN(C)C(=O)c1ccc(-c2nc([C@@H]3CCCN(C(=O)Nc4ccc(N(C)C)cc4)C3)n3ccccc23)cc1` [Compound 10-46] belongs more than 3 µM.
To `CN(C)c1ccc(NC(=O)N2CCC[C@@H](c3nc(-c4csc5ccccc45)c4ccccn34)C2)cc1` [Compound 10-47] belongs 0.1 to 0.5 µM; to `COc1ccc(-c2nc([C@H]3CCCN(C(=O)Nc4ccc(N(C)C)cc4)C3)n3ccccc23)cc1` [Compound 10-48], 1 to 3 µM.
In the case of `CN(C)c1ccc(NC(=O)N2CCC[C@@H](c3nc(-c4ccc(C(F)F)cc4)c4ccccn34)C2)cc1` [Compound 10-49], the concentration for half-maximal inhibition (IC50) is 0.1 to 0.5 µM.
The same measure for `CN(C)c1ccc(NC(=O)N2CCC[C@@H](c3nc(-c4cccc5c4CCC5)c4ccccn34)C2)cc1` [Compound 10-50]: less than 0.1 µM.
Regarding `CN(C)c1ccc(NC(=O)N2CCC[C@@H](c3nc(-c4cccc5c4OCO5)c4ccccn34)C2)cc1` [Compound 10-51], the half-inhibitory concentration (IC50) is less than 0.1 µM.

For orientation: IC50 means the concentration that gives 50% inhibition. High values mean lower potency, low ones higher potency.
